Data set [1] deals with L. mexicana promastigotes. As to the kind of experiment: Metabolic inhibition of Leishmania mexicana promastigotes, fluorometric analysis with resazurin. The conditions noted are these: for SI (CC50/IC50) L. mexicana: CC50 macrophages J774 / IC50 L. mexicana promastigotes; for IC50: Leishmania mexicana, 48 h, read-out: L. mexicana Promastigotes IC50, promastigotes, 24 h + 24 h resazurin, 27 °C, confidence interval (Probit) in parentheses, triplicate; for activity on L. mexicana (in words): promastigotes, in vitro. Type of data set: cell-based. As for the experimental part: A promastigote culture of L. mexicana was harvested in the stationary phase after 7 days of growth in culture. To each well of a sterile 96-well microplate, 5 × 10^5 promastigotes and the compound to be assessed (or the reference drug) were added to a final volume of 100 μL in RPMI culture medium supplemented with 10% SFB and 1% ampicillin/streptomycin. Each compound was examined at different concentrations, obtained by serial two-fold dilutions starting from 50 μg/mL. […] Promastigotes with 0.5% DMSO (at the vehicle concentration of the greatest dilution of the compound) served as the positive viability control and amphotericin B at a final concentration of 5 μg/mL served as the negative viability control. Each condition was assayed in triplicate.
After 24 h of incubation, 10 μL of 0.01% resazurin was added to each of the wells and incubation continued for another 24 h under the same conditions. The plate was read via a fluorometer (Spectramax M3, Molecular Devices, LLC, San Jose, CA, USA) at 544 nm excitation and 590 nm emission. Each treated well was compared to the positive viability control, and metabolic inhibition was expressed as a percentage. The IC50 value was determined with the Probit statistical tool version 4.1 [31, 32, 33].
Resazurin is a blue, permeable, and non-fluorescent compound. Upon entering cells, it is reduced to resorufin due to the reducing environment of the cytosol in living cells. Resorufin is red and highly fluorescent. The number of living cells is proportional to the fluorescence intensity of resorufin [31].
Background: The colour change of resazurin is a common sign of viable cells or microbes.

Data set [2] can be described thus: Cytotoxic effect on macrophages, resazurin. Type of data set: cell-based, murine. The conditions noted are these: mouse, J774A.1 macrophages; J774A.1 murine macrophages, 20 h + 4 h resazurin; confidence interval (Probit) in parentheses; triplicate; read-out: Macrophages J774 CC50. How it is done: (§1) The microplate was incubated at 37 °C with 5% CO2 and humidity for 24 h to allow for the formation of a cell monolayer with a confluence of 80%. Subsequently, a concentration–response evaluation was carried out. Briefly, one of the compounds at the corresponding concentration was placed in each well with macrophages. […] As the negative cytotoxicity control, cells were exposed to 1% DMSO. The microplate was incubated at 37 °C with 5% CO2 and humidity for 20 h. Afterwards, 10 μL of 0.01% resazurin was added and the microplate was incubated for 4 h. As mentioned above, the microplate was read via a fluorometer at 544 nm excitation and 590 nm emission. Each treated well was compared to the negative cytotoxicity control and the data were expressed as a percentage of metabolic inhibition. The Probit statistical tool was used to calculate the CC50.

For data set [3], the system named is T. cruzi INC-5 epimastigotes. In words: Metabolic inhibition of Trypanosoma cruzi INC-5 epimastigotes, colorimetric analysis with MTT. Type of data set: cell-based. The settings on record: for SI (CC50/IC50) T. cruzi: CC50 macrophages J774 / IC50 T. cruzi INC-5 epimastigotes; for IC50: Trypanosoma cruzi, 24 h, 24 h + 20 h MTT, 27 °C, confidence interval (Probit) in parentheses, triplicate; for IC50 / activity on T. cruzi (in words): epimastigotes; for activity on T. cruzi (in words): in vitro. As for the experimental part: Epimastigotes of T. cruzi INC-5 were harvested after 7 days of growth in culture. […] The microplate was incubated in the dark at 27 °C for 24 h. Epimastigotes with 0.5% DMSO served as the positive viability control and the reference drugs nifurtimox ([…], Bayer, Germany) and benznidazole (Rochagan, Roche, Brazil) served as the negative viability control. Each condition was assayed in triplicate. Upon completion of the incubation time, 10 μL of MTT solution at 5 mg/mL was added to each well, and incubation continued in the dark at 27 °C for 20 h. Then, 100 μL of a solution containing 10% SDS and 0.01 M HCl was added to stop the reaction. […] The plates were read on a spectrophotometer (Spectramax Plus, Molecular Devices) at an absorbance of 570 nm. The result found in each well with a given concentration of the respective compound was compared to the positive viability control and the metabolic inhibition was expressed as a percentage. The IC50 was determined using the Probit statistical tool. MTT is a yellow, water-soluble compound. In living cells, […] is captured and reduced to its insoluble form (formazan, which is purple) by mitochondrial succinate dehydrogenase. The quantity of living cells is proportional to the amount of formazan produced.

The test system of the next data set is J774A.1 macrophages. As to the kind of experiment: Cytotoxic effect on macrophages, resazurin. The settings on record: murine macrophage cell line. Type of data set: cell-based, murine. As for the experimental part: as §1

The term IC50 denotes the point on the concentration scale where inhibition reaches its midpoint. The term CC50 denotes the concentration at which the toxic effect on the cells reaches its halfway point. Turning to `C[C@@H]1[C@H](O)[C@@H](C)/C=C/C=C/C=C/C=C/C=C/C=C/C=C/[C@H](O[C@@H]2O[C@H](C)[C@@H](O)[C@H](N)[C@@H]2O)C[C@@H]2O[C@](O)(C[C@@H](O)C[C@@H](O)[C@H](O)CC[C@@H](O)C[C@@H](O)CC(=O)O[C@H]1C)C[C@H](O)[C@H]2C(=O)O` [AmB, amphotericin, reference compound], in data set [1], the “SI (CC50/IC50) L. mexicana” value is reported as 253.26 and the IC50 is 0.19 µg/mL. Moreover, the CC50 in data set [2] stood at 48.1 µg/mL.
Regarding `O=C(Cn1ccnc1[N+](=O)[O-])NCc1ccccc1` [Bnz, benznidazole, reference compound], in data set [2], the CC50 came out at 91.6 µg/mL. In data set [3], the “SI (CC50/IC50) T. cruzi” value was determined as 8.31 and the half-inhibitory concentration (IC50) was found to be 11 µg/mL.
The like results for `CC1CS(=O)(=O)CCN1/N=C/c1ccc([N+](=O)[O-])o1` (stereo not drawn) [Nfx, nifurtimox, reference compound] were, in that order, 57.8 µg/mL, 23.10 and 2.5 µg/mL.
Consider `COc1ccc(C2=NCCN2)cc1` [compound 22, 2-(4-Methoxyphenyl)-4,5-dihydro-1H-imidazole], for which, in data set [1], the “SI (CC50/IC50) L. mexicana” value is over 6.23 and the half-maximal inhibitory concentration (IC50) was 16 µg/mL. For the same molecule, the CC50 in data set [2] is over 100 µg/mL. For the same molecule, in the data set with J774A.1 macrophages, the “cytotoxic effect on macrophages (in words)” value is “least cytotoxic effect”. Besides, in data set [3], the IC50 is over 50 µg/mL and the “activity on T. cruzi (in words)” value was “inactive”.
Usually melting point stands for the temperature, or range, at which the solid turns liquid. Regarding `CCOc1ccc(C2=NCCN2)cc1` [compound 23, 2-(4-Ethoxyphenyl)-4,5-dihydro-1H-imidazole], the melting point lay in the range of 180 to 182 °C. In addition, in data set [1], the “SI (CC50/IC50) L. mexicana” value is given as over 13.12 and the IC50 came to 7.62 µg/mL. The CC50 in data set [2] was over 100 µg/mL. Besides, the “cytotoxic effect on macrophages (in words)” value in the data set with J774A.1 macrophages is on record as “least cytotoxic effect”. Moreover, in data set [3], the IC50 was over 50 µg/mL and the “activity on T. cruzi (in words)” value is “inactive”.
`CCCOc1ccc(C2=NCCN2)cc1` [compound 24, 2-(4-Propyloxyphenyl)-4,5-dihydro-1H-imidazole] displayed a melting point of 121 to 122 °C.
On the same count and under the same terms, with `CC(C)Oc1ccc(C2=NCCN2)cc1` [compound 25, 2-(4-iso-propyloxyphenyl)-4,5-dihydro-1H-imidazole] the figure was 151 to 153 °C.
`CCCCOc1ccc(C2=NCCN2)cc1` [compound 26, 2-(4-Butyloxyphenyl)-4,5-dihydro-1H-imidazole] had a melting point of 122 to 123 °C. Further, in data set [1], the “SI (CC50/IC50) L. mexicana” value is recorded as over 37.98 and the 50% inhibitory concentration (IC50) amounted to 2.63 µg/mL. In addition, the half-maximal cytotoxic concentration (CC50) in data set [2] is over 100 µg/mL. Also, the IC50 in data set [3] was 48.7 µg/mL.
In turn, `CCCCCOc1ccc(C2=NCCN2)cc1` [compound 27, 8-Penthyloxyphenil-2-imidazoline] came in with a melting point of 129 to 131 °C. In data set [1], the “SI (CC50/IC50) L. mexicana” value was found to be 88.28 and the IC50 was under 1 µg/mL. For the same molecule, the CC50 in data set [2] was 71.3 µg/mL. Moreover, in data set [3], the “SI (CC50/IC50) T. cruzi” value came out at 1.90 and the IC50 stood at 37.5 µg/mL.
Regarding `CCCCCCOc1ccc(C2=NCCN2)cc1` [compound 28, 8-Hexyloxypheny-2-imidazoline], the melting point was in the range of 133 to 135 °C. Besides, in data set [1], the “SI (CC50/IC50) L. mexicana” value came to 166.31. The CC50 in data set [2] turned out to be 29.2 µg/mL. In data set [3], the “SI (CC50/IC50) T. cruzi” value is on record as 1.16 and the half-inhibitory concentration (IC50) was determined as 25.1 µg/mL.
The molecule `CCCCCCCOc1ccc(C2=NCCN2)cc1` [compound 29, 8-Hepthyloxyphenyl-2-imidazoline] returned a melting point of 100 to 102 °C. Moreover, the “SI (CC50/IC50) L. mexicana” value in data set [1] is listed as 106.21. Also, the cytotoxic concentration (CC50) in data set [2] worked out at 21.5 µg/mL.
In the case of `CCCCCCCCOc1ccc(C2=NCCN2)cc1` [compound 30], the melting point was 102 to 104 °C. Besides, in data set [1], the “SI (CC50/IC50) L. mexicana” value stood at 48.11 and the “activity on L. mexicana (in words)” value was “active”. The CC50 in data set [2] is 9.72 µg/mL. For the same molecule, in data set [3], the half-inhibitory concentration (IC50) was under 1 µg/mL and the “activity on T. cruzi (in words)” value is reported as “active”.
For the molecule `CCCCCCCCCOc1ccc(C2=NCCN2)cc1` [compound 31], the melting point lay within 103 to 105 °C. For the same molecule, in data set [1], the “SI (CC50/IC50) L. mexicana” value was found to be 92.56 and the 50% inhibitory concentration (IC50) is under 1 µg/mL. Moreover, in data set [2], the CC50 turned out to be 50.6 µg/mL. Moreover, in data set [3], the “SI (CC50/IC50) T. cruzi” value turned out to be 2.40 and the IC50 is 21 µg/mL.
In turn, `CCCCCCOc1ccc(-c2ncc[nH]2)cc1` [compound 33, 8-Hexyloxyphenyl-2-imidazole] gave a melting point of 133 to 135 °C. For the same molecule, in data set [1], the “SI (CC50/IC50) L. mexicana” value turned out to be 25.21, the IC50 stood at 3.4 µg/mL and the “activity on L. mexicana (in words)” value is “active”. For the same molecule, in data set [2], the CC50 worked out at 85.7 µg/mL. Further, in data set [3], the 50% inhibitory concentration (IC50) is under 10 µg/mL and the “activity on T. cruzi (in words)” value was “active”.
In the case of `CCCCCCCCOc1ccc(-c2ncc[nH]2)cc1` [compound 35, 8-Octyloxyphenyl-2-imidazole], the melting point fell in the range of 117 to 119 °C. Besides, in data set [1], the “SI (CC50/IC50) L. mexicana” value turned out to be 14.92, the IC50 is 2.69 µg/mL and the “activity on L. mexicana (in words)” value is listed as “active”. Moreover, in data set [2], the CC50 turned out to be 40.2 µg/mL. Besides, the “activity on T. cruzi (in words)” value in data set [3] is given as “active”.
For the molecule `CCCCCCCCCOc1ccc(-c2ncc[nH]2)cc1` [compound 36, 8-Nonyloxyphenyl-2-imidazole], in data set [1], the “SI (CC50/IC50) L. mexicana” value was determined as 28.53, the IC50 amounted to 1.09 µg/mL and the “activity on L. mexicana (in words)” value is on record as “active”. Further, in data set [2], the CC50 turned out to be 31.3 µg/mL. In addition, in data set [3], the IC50 is under 1 µg/mL and the “activity on T. cruzi (in words)” value is on record as “active”.
In turn, `CCCCCCOc1ccc([C@@H](O)[C@@H](O)c2ccc(OCCCCCC)cc2)cc1` [compound 37, (1R,2S)-1,2-bis(4-hexyloxyphenyl)ethane-1,2-diol] yielded a melting point of 122 to 123 °C. In data set [1], the 50% inhibitory concentration (IC50) was over 50 µg/mL and the “activity on L. mexicana (in words)” value is “inactivity”. Also, in data set [3], the IC50 is over 50 µg/mL and the “activity on T. cruzi (in words)” value is listed as “inactivity”.
On to `O=c1[nH]c2ccccc2nc1CBr` [compound 38, 3-(Bromomethyl)quinoxalin-2(1H)-one], for which the melting point lay within 224 to 226 °C. Further, in data set [1], the IC50 is over 50 µg/mL and the “activity on L. mexicana (in words)” value was “no effect was detected”. Also, in data set [3], the half-inhibitory concentration (IC50) is over 50 µg/mL and the “activity on T. cruzi (in words)” value was “no effect was detected”.

The record behind these values is publication PMC11012064, “Synthesis of Antiprotozoal 2-(4-Alkyloxyphenyl)-Imidazolines and Imidazoles and Their Evaluation on Leishmania mexicana and Trypanosoma cruzi” (International Journal of Molecular Sciences, 2024).
